Experiments:
[1] = biological target: T1, human PRMT6 (Homo sapiens, UniProt Q96LA8); experiment: PRMT6 Biochemical Assay (3H-SAM Flashplate, peptide substrate); conditions: Biochemical IC50 PRMT6, single experiment or average of multiple experiments
T1 construct: Flag-PRMT6-His; made in house; host or cells: HEK 293F cells (BacMam baculovirus)
Text: (§1) S-adenosylmethionine (SAM), S-adenosylhomocysteine (SAH), bicine, Tween20, dimethylsulfoxide (DMSO), bovine skin gelatin (BSG), sodium butyrate and Tris(2-carboxyethyl)phosphine hydrochloride solution (TCEP) were purchased from Sigma-Aldrich at the highest level of purity possible. ^3H-SAM was purchase from American Radiolabeled Chemicals with a specific activity of 80 Ci/mmol. 384-well streptavidin Flashplates were purchased from PerkinElmer.
Peptide representative of human histone H4 residues 36-50 was synthesized with an N-terminal linker-affinity tag motif and a C-terminal amide cap by 21st Century Biochemicals.
The amplified gene was subcloned into pFastBacMam (Viva Biotech).
Recombinant baculovirus were generated according to Bac-to-Bac kit instructions (Life Technologies). […] Infections were carried out at 37° C. for 48 hours, harvested by centrifugation, and stored at −80° C. for purification.
Column was washed with 20 mM imidazole in the same buffer and Flag-PRMT6-His was eluted with 150 mM imidazole. […] Flag-PRMT6-His was eluted with 200 ug/ml FLAG peptide in the same buffer. Pooled fractions were dialysed in 20 mM Tris, 150 mM NaCl, 10% glycerol and 5 mM β-mercaptoethanol, pH 7.8.
General Procedure for PRMT6 Enzyme Assays on Peptide Substrates.
(§2) The assays were all performed in a buffer consisting of 20 mM Bicine (pH=7.6), 1 mM TCEP, 0.005% BSG, and 0.002% Tween 20, prepared on the day of use. […] DMSO (1 ul) was added to Columns 11, 12, 23, 24, rows A-H for the maximum signal control and 1 ul of SAH, a known product and inhibitor of PRMT6, was added to columns 11, 12, 23, 24, rows I-P for the minimum signal control. A cocktail (40 ul) containing the PRMT6 enzyme was added by Multidrop Combi (Thermo-Fisher). The compounds were allowed to incubate with PRMT6 for 30 min at room temperature, then a cocktail (10 ul) containing SAM and peptide was added to initiate the reaction (final volume=51 ul). […] The assays were stopped by the addition of non-radiolabeled SAM (10 ul) to a final concentration of 400 uM, which dilutes the ^3H-SAM to a level where its incorporation into the peptide substrate is no longer detectable. 50 ul of the reaction in the 384-well polypropylene plate was then transferred to a 384-well Flashplate and the biotinylated peptides were allowed to bind to the streptavidin surface for at least 1 hour before being washed once with 0.1% Tween20 in a Biotek ELx405 plate washer. The plates were then read in a PerkinElmer TopCount plate reader to measure the quantity of ^3H-labeled peptide bound to the Flashplate surface, measured as disintegrations per minute (dpm) or alternatively, referred to as counts per minute (cpm).
(§3) Where dpm=disintegrations per minute, cmpd=signal in assay well, and min and max are the respective minimum and maximum signal controls.
(§4) Where top and bottom are the normally allowed to float, but may be fixed at 100 or 0 respectively in a 3-parameter fit. The Hill Coefficient normally allowed to float but may also be fixed at 1 in a 3-parameter fit. Y is the % inhibition and X is the compound concentration.

[2] = biological target: T2, human PRMT1 (Homo sapiens, UniProt Q99873); experiment: PRMT1 Biochemical Assay (3H-SAM Flashplate, peptide substrate); conditions: single experiment or average of multiple experiments
T2 construct: GST-tagged PRMT1; made in house; host or cells: High Five insect cells (baculovirus)
T2 sequence (Q99873 with tags, fused parts or gaps): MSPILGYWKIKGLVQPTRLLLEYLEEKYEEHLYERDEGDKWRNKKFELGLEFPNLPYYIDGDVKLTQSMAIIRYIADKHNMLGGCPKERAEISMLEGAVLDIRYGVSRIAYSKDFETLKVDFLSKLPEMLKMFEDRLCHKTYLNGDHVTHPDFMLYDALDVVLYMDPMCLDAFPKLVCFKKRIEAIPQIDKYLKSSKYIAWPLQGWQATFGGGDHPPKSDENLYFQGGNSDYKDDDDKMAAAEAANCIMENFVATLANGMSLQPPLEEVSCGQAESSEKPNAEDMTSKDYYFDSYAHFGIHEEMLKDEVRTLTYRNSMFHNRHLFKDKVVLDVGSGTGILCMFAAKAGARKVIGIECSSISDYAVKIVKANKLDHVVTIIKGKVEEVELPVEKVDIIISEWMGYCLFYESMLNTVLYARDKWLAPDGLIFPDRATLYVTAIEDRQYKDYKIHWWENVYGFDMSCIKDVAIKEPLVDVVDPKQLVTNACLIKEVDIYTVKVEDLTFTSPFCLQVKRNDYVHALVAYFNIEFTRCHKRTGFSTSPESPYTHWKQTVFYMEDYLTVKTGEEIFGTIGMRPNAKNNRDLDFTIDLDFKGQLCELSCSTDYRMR
Text: as §1, with “(BSG),” for “(BSG), sodium butyrate”
Recombinant baculovirus were generated according to Bac-to-Bac kit instructions (Life Technologies). […] Infections were carried out at 27° C. for 48 hours, harvested by centrifugation, and stored at −80° C. for purification.
GST-tagged PRMT1 was eluted with 50 mM Tris, 2 mM glutathione, pH 7.8, dialysed in buffer A and concentrated to 1 mg/mL.
General Procedure for PRMT1 Enzyme Assays on Peptide Substrates.
as §2, with “PRMT1,” for “PRMT6,”, “PRMT1” for “PRMT6”, “300” for “400”
as §3, §4

T1 sequence (Q96LA8 with tags, fused parts or gaps): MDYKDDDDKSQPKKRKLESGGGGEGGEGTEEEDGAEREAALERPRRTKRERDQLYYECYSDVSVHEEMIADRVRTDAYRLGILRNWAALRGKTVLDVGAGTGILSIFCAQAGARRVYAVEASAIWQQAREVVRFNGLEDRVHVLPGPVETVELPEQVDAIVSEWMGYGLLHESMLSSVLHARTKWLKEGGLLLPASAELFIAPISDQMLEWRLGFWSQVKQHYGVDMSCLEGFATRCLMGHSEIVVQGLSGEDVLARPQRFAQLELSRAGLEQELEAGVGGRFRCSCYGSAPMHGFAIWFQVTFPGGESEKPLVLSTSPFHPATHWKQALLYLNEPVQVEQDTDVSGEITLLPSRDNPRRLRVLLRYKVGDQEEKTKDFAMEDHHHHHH

Compound | IC50 [1] | IC50 [2]
COCCn1ncc(CN(C)CCN)c1-c1ccc(F)cc1 [Compound 6] | 0.312 µM | 3.46 µM
CCn1ncc(CN(C)CCNC)c1-c1ccc(F)cc1 [Compound 7] | 0.0383 µM | 0.265 µM
CCn1cc(CN(C)CCNC)c(-c2ccc(F)cc2)n1 [Compound 8] | 0.287 µM | 1.18 µM
CN(CCN)Cc1c[nH]nc1-c1ccc(OCC(F)(F)F)cc1 [Compound 96] | 0.00709 µM | 0.00441 µM
CC(C)Oc1ccc(-c2n[nH]cc2CN(C)CCN)cc1F [Compound 97] | 0.00735 µM | 0.0026 µM
CN(CCN)Cc1c[nH]nc1-c1ccc(C2CCOCC2)cc1 [Compound 98] | 0.0154 µM | 0.00584 µM
CN(CCN)Cc1c[nH]nc1-c1ccc(F)cc1F [Compound 99] | 0.0279 µM | 0.0902 µM
CN(CCN)Cc1n[nH]cc1-c1ccc(C#N)cc1 [Compound 100] | 0.0112 µM | 0.012 µM
CC(C)c1ccc(-c2c[nH]nc2CN(C)CCN)cc1 [Compound 101] | 0.136 µM | 0.0203 µM
CN(CCN)Cc1n[nH]cc1-c1ccc(Cl)cc1 [Compound 102] | 0.00902 µM | 0.0113 µM
CN(CCN)Cc1n[nH]cc1-c1ccc(C(F)(F)F)cc1 [Compound 103] | 0.017 µM | 0.0102 µM
CN(CCN)Cc1n[nH]cc1-c1ccc(C2CC2)cc1 [Compound 104] | 0.0453 µM | 0.0157 µM
CN(CCN)Cc1n[nH]cc1-c1ccc(OC(F)(F)F)cc1 [Compound 105] | 0.0556 µM | 0.00885 µM
COc1ccc(-c2n[nH]cc2CN(C)CCN)c(F)c1 [Compound 107] | 0.015 µM | 0.0441 µM
Cc1ccc(-c2n[nH]cc2CN(C)CCN)c(F)c1 [Compound 108] | 0.00949 µM | 0.0313 µM
COc1ccccc1-c1n[nH]cc1CN(C)CCN [Compound 109] | 0.217 µM | 0.244 µM
Cc1cc(C#N)ccc1-c1n[nH]cc1CN(C)CCN [Compound 110] | 0.0165 µM | 0.0216 µM

Compound | IC50 [1] | IC50 [2]
CN(CCN)Cc1c[nH]nc1-c1cc(F)cc(F)c1 [Compound 111] | 0.0118 µM | 0.0189 µM
CC(=O)c1cccc(-c2n[nH]cc2CN(C)CCN)c1 [Compound 112] | 0.0847 µM | 0.081 µM
CN(CCN)Cc1c[nH]nc1-c1ccc(OC2CC2)cc1 [Compound 114] | 0.0162 µM | 0.00575 µM
CC(O)c1ccc(-c2n[nH]cc2CN(C)CCN)cc1 (stereo not drawn) [Compound 115] | 0.0254 µM | 0.046 µM
CN(CCN)Cc1c[nH]nc1-c1ccc(C2CC2)cc1 [Compound 116] | 0.0073 µM | 0.00484 µM
CN(CCN)Cc1c[nH]nc1-c1ccc(C(F)(F)F)c(Cl)c1 [Compound 117] | 0.00487 µM | 0.00576 µM
CN(CCN)Cc1c[nH]nc1-c1ccc(Cl)c(F)c1 [Compound 118] | 0.00318 µM | 0.00294 µM
CN(CCN)Cc1n[nH]cc1-c1ccc(OC2CC2)cc1 [Compound 119] | 0.088 µM | 0.0162 µM
CN(CCN)Cc1c[nH]nc1-c1cc(F)cc(Cl)c1 [Compound 121] | 0.00748 µM | 0.0107 µM
CN(CCN)Cc1c[nH]nc1-c1cccc(Cl)c1 [Compound 122] | 0.00899 µM | 0.0243 µM
CN(CCN)Cc1c[nH]nc1-c1cccc(Cl)c1F [Compound 123] | 0.0171 µM | 0.0439 µM
CN(CCN)Cc1c[nH]nc1-c1ccc(F)c(Cl)c1 [Compound 124] | 0.00715 µM | 0.0137 µM
COc1ccc(-c2n[nH]cc2CN(C)CCN)cc1Cl [Compound 125] | 0.00665 µM | 0.00838 µM
Cc1ccc(-c2n[nH]cc2CN(C)CCN)cc1Cl [Compound 126] | 0.00494 µM | 0.00681 µM
COc1cc(Cl)cc(-c2n[nH]cc2CN(C)CCN)c1 [Compound 127] | 0.0141 µM | 0.0461 µM
Cc1c(F)cccc1-c1n[nH]cc1CN(C)CCN [Compound 129] | 0.0528 µM | 0.121 µM
